# From patent publication US20060019892A1 (Florida Atlantic University, priority 2003, published 2006)
# Columns and labels:
# [1] = system: primary cultures of rat neonatal cortex (cultured cortical neurons); format: cell-based
# [2] = system: nAChR; conditions: cited from earlier work
substance,measurement,setting,value
A-O-A-N-S-V*-W-S [gla-1],effect on Ca^++ flux in the cells,[1],reducing Ca^++ flux
same,modulation of Ca^++ flux in cultured neurons from rat cortex,[1],modulate Ca^++ flux
HOCCLYGK-CRRYOGCSSASASCCQR [ψPIIIE],nAChR activity annotation,[2],non comp. nAChR
RDOCCYHPTCNMSNPQIC* [EI],Target: nAChR (subtype),[2],α1γ = α1δβ2 musc.
